Assay [1] relates to Pseudomonas aeruginosa AmpC (first AmpC column). The experiment in a line: MIC alone against β-lactamase producing strain. Format: cell-based. Conditions: substance alone, column 2. The procedure:
(§1) Minimum Inhibitory Concentrations (MICs) were determined by the broth microdilution method in accordance with the Clinical and Laboratory Standards Institute (CLSI) guidelines. Clinical Laboratory Standards Institute: Methods for Dilution Antimicrobial Susceptability Tests for Bacteria That Grow Aerobically (8th Ed. (2009)) M07-A8. In brief, organism suspensions were adjusted to a 0.5 McFarland standard and further diluted to yield a final inoculum between 3×10^5 and 7×10^5 colony-forming units (CFU)/mL. Bacterial inocula were made in sterile, cation adjusted Mueller-Hinton Broth (Beckton Dickinson) for either Escherichia coli, Klebsiella pneumoniae, or Pseudomonas aeruginosa. Haemophilus influenzae bacterial inocula were made in sterile, cation adjusted Mueller-Hinton Broth (Beckton Dickinson) containing 0.5% yeast extract (Beckton Dickinson) plus 15 μg/ml Bovine Hematin (Sigma) and 15 μg/ml β-nicotinamide adenine dinucleotide (Sigma). Bacterial inocula were made in sterile, cation adjusted Mueller-Hinton Broth (Beckton Dickinson) for Staphylococcus aureus or sterile, cation adjusted Mueller-Hinton Broth containing 2.5% lysed horse blood (Hema Resource & Supply Inc.) for Streptococcus pneumoniae and Streptococcus pyogenes. An inoculum volume of 100 uL was added to wells (using a Tecan EVO robot) containing 2 uL of DMSO containing 2-fold serial dilutions of drug. […] All inoculated microdilution trays were incubated in ambient air at 35° C. for 18-24 hours. Following incubation, the lowest concentration of the drug that prevented visible growth as read at OD600 nm was recorded as the MIC. Performance of the assay was monitored by the use of laboratory quality-control strains and commercially available control compounds with defined MIC spectrums, in accordance with CLSI guidelines.

The test system of assay [2] is Pseudomonas aeruginosa PER-1, OXA-10. As to the kind of experiment: MIC alone against β-lactamase producing strain. It counts as cell-based. Conditions: Pseudomonas aeruginosa; substance alone. As to the method: as §1
Assay [3] relates to Pseudomonas aeruginosa AmpC (second AmpC column). The experiment in a line: MIC alone against β-lactamase producing strain. It counts as cell-based. Conditions: substance alone, column 4. As to the method: as §1
Assay [4] relates to Klebsiella pneumoniae KPC2. As to the kind of experiment: MIC alone against β-lactamase producing strain. It counts as cell-based. Conditions: Klebsiella pneumoniae, KPC2; substance alone. As to the method:
as §1

The next assay deals with Klebsiella pneumoniae. As to the kind of experiment: MIC, broth microdilution (CLSI). It counts as cell-based. Conditions: Klebsiella pneumoniae; compound alone; read-out: MIC K. pneumon. The procedure:
as §1
Background: Dilution methods test growth across graded concentrations, often in twofold steps.

Another assay concerns Pseudomonas aeruginosa. As to the kind of experiment: MIC, broth microdilution (CLSI). Format: cell-based. Conditions: Pseudomonas aeruginosa; compound alone; read-out: MIC P. aeruginosa. The procedure:
as §1

The next assay concerns Streptococcus pneumoniae. As to the kind of experiment: MIC, broth microdilution (CLSI). Conditions: Streptococcus pneumoniae; compound alone; read-out: MIC S. pneumon. It counts as cell-based. The procedure:
as §1

For another assay, the system named is Escherichia coli. The experiment in a line: MIC, broth microdilution (CLSI). Format: cell-based. Conditions: Escherichia coli; compound alone. As to the method:
as §1

For another assay, the system named is Streptococcus pyogenes. The experiment in a line: MIC, broth microdilution (CLSI). Format: cell-based. Conditions: Streptococcus pyogenes; compound alone; read-out: MIC S. pyogenes. As to the method:
as §1

A further assay relates to S. aureus (MRSA). As to the kind of experiment: MIC, broth microdilution (CLSI). Conditions: Staphylococcus aureus, MRSA; compound alone. Format: cell-based, Staphylococcus aureus. As to the method: as §1
Another assay has as its system S. aureus (MSSA). The experiment in a line: MIC, broth microdilution (CLSI). It counts as cell-based, Staphylococcus aureus. Conditions: Staphylococcus aureus, MSSA; compound alone. As to the method:
as §1

In a further assay the test system is Haemophilus influenzae. As to the kind of experiment: MIC, broth microdilution (CLSI). It counts as cell-based. Conditions: Haemophilus influenzae; compound alone; read-out: MIC H. influenzae. The procedure: as §1

We go through 13 molecules from patent US9623014B2 (Entasis Therapeutics Limited, priority 2012, dated 2017).

≈ marks a conversion by molar mass, not a printed value. Structures can show the parent of a compound that is named as a salt.

Turning to `CC(C)(O/N=C(\C(=O)N[C@@H]1C(=O)N2C(C(=O)[O-])=C(C[n+]3ccccc3)CS[C@H]12)c1csc(N)n1)C(=O)O` [Ceftazidime, ceftazidime, reference compound], the MIC in assay [1] is 128 µg/mL (≈ 234 µM); in [2] it was 256 µg/mL (≈ 468 µM); in assay [3] it was 32 µg/mL (≈ 58.5 µM); in assay [4], 256 µg/mL (≈ 468 µM).

`CC1=C[C@@H](C(N)=O)N2C[C@@H]1N(OS(=O)(=O)O)C2=O.[Na]` [Example 1, (2S,5R)-2-carbamoyl-4-methyl-7-oxo-1,6-diazabicyclo[3.2.1]oct-3-en-6-yl hydrogen sulfate sodium salt]: the MIC in the assay with Klebsiella pneumoniae amounted to 50 µg/mL; in the assay with Pseudomonas aeruginosa it was 200 µg/mL; with Streptococcus pneumoniae, 6.25 µg/mL; in the assay on Escherichia coli, 50 µg/mL; in the assay on Streptococcus pyogenes, 3.13 µg/mL; in assay [1], 64 µg/mL. The MIC in assay [2] was over 64 µg/mL; in assay [3] it was over 64 µg/mL; in assay [4], 8 µg/mL; in the assay with S. aureus (MRSA), over 200 µg/mL; in the assay on S. aureus (MSSA), 25 µg/mL.

Consider `CC1=C[C@@H](C#N)N2C[C@@H]1N(OS(=O)(=O)O)C2=O.[Na]` [Example 2, (2S,5R)-2-cyano-4-methyl-7-oxo-1,6-diazabicyclo[3.2.1]oct-3-en-6-yl hydrogen sulfate sodium salt], for which the MIC was 12.5 µg/mL in the assay on Haemophilus influenzae; 100 µg/mL with Klebsiella pneumoniae; over 200 µg/mL with Pseudomonas aeruginosa; 25 µg/mL in the assay with Streptococcus pneumoniae; 100 µg/mL with Escherichia coli; 3.13 µg/mL in the assay with Streptococcus pyogenes. The MIC was over 64 µg/mL in assay [1]; over 64 µg/mL in [2]; over 64 µg/mL in [3]; 64 µg/mL in assay [4]; 100 µg/mL in the assay on S. aureus (MRSA); 100 µg/mL with S. aureus (MSSA).

Take `CC1=C[C@@H](C(=O)NC2CCNCC2)N2C[C@@H]1N(OS(=O)(=O)O)C2=O` [Example 3, (2S,5R)-4-methyl-7-oxo-2-(piperidinium-4-ylcarbamoyl)-1,6-diazabicyclo[3.2.1]oct-3-en-6-yl sulfate]: the MIC with Haemophilus influenzae is 3.13 µg/mL; with Klebsiella pneumoniae, over 200 µg/mL; with Pseudomonas aeruginosa it was over 200 µg/mL; in the assay with Streptococcus pneumoniae, 50 µg/mL; against Escherichia coli it was over 200 µg/mL; in the assay with Streptococcus pyogenes it was 50 µg/mL. The MIC against S. aureus (MRSA) and against S. aureus (MSSA) was over 200 µg/mL each time.

With `CC(C)C1=C[C@@H](C(N)=O)N2C[C@@H]1N(OS(=O)(=O)O)C2=O.[Na]` [Example 4, (2S,5R)-2-carbamoyl-4-isopropyl-7-oxo-1,6-diazabicyclo[3.2.1]oct-3-en-6-yl hydrogen sulfate sodium salt], the MIC was over 200 µg/mL in the assay with Haemophilus influenzae; over 200 µg/mL with Klebsiella pneumoniae; over 200 µg/mL in the assay on Pseudomonas aeruginosa; 200 µg/mL with Streptococcus pneumoniae; over 200 µg/mL against Escherichia coli; 50 µg/mL with Streptococcus pyogenes. For the same molecule, the MIC was over 64 µg/mL in assay [1]; over 64 µg/mL in [2]; over 64 µg/mL in assay [3]; over 64 µg/mL in assay [4]; over 200 µg/mL in the assay with S. aureus (MRSA).

Turning to `CC(C)C1=C[C@@H](C#N)N2C[C@@H]1N(OS(=O)(=O)O)C2=O.[Na]` [Example 5, (2S,5R)-2-cyano-4-isopropyl-7-oxo-1,6-diazabicyclo[3.2.1]oct-3-en-6-yl hydrogen sulfate sodium salt], the MIC was 100 µg/mL in the assay on Haemophilus influenzae; over 200 µg/mL in the assay on Klebsiella pneumoniae; over 200 µg/mL in the assay on Pseudomonas aeruginosa; 100 µg/mL in the assay on Streptococcus pneumoniae; over 200 µg/mL against Escherichia coli; 50 µg/mL with Streptococcus pyogenes. The MIC against S. aureus (MRSA) and with S. aureus (MSSA) was over 200 µg/mL throughout.

For `CC1=C[C@@H](C(=O)NCCN)N2C[C@@H]1N(OS(=O)(=O)O)C2=O` [Example 6, (2S,5R)-2-(2-aminoethylcarbamoyl)-4-methyl-7-oxo-1,6-diazabicyclo[3.2.1]oct-3-en-6-yl hydrogen sulfate], the MIC with Haemophilus influenzae was over 200 µg/mL; with Klebsiella pneumoniae it was over 200 µg/mL; with Pseudomonas aeruginosa it was 25 µg/mL; in the assay with Streptococcus pneumoniae, 25 µg/mL; against Escherichia coli it was over 200 µg/mL; in the assay with Streptococcus pyogenes, 25 µg/mL. Also, the MIC in [1] was 16 µg/mL; in assay [2], 16 µg/mL; in [3] it was 16 µg/mL; in [4] it was 0.25 µg/mL; in the assay on S. aureus (MRSA), over 200 µg/mL; against S. aureus (MSSA) it was 200 µg/mL.

Regarding `C=C(C)C1=C[C@@H](COC)N2C[C@@H]1N(OS(=O)(=O)O)C2=O.[Na]` [Example 7, (2S,5R)-2-(methoxymethyl)-7-oxo-4-(prop-1-en-2-yl)-1,6-diazabicyclo[3.2.1]oct-3-en-6-yl hydrogen sulfate sodium salt], the MIC in the assay on Haemophilus influenzae, with Klebsiella pneumoniae, with Pseudomonas aeruginosa, with Streptococcus pneumoniae, against Escherichia coli and in the assay with Streptococcus pyogenes was over 200 µg/mL each time. In addition, the MIC in the assay on S. aureus (MRSA) and with S. aureus (MSSA) was over 200 µg/mL in each case.

Take `CC1=C[C@@H](C(=O)NCc2cc(=O)c(O)c[nH]2)N2C[C@@H]1N(OS(=O)(=O)O)C2=O` [Example 8, (2S,5R)-2-((5-hydroxy-4-oxo-1,4-dihydropyridin-2-yl)methylcarbamoyl)-4-methyl-7-oxo-1,6-diazabicyclo[3.2.1]oct-3-en-6-yl hydrogen sulfate sodium salt]: the MIC in [1], in [2], in [3] and in assay [4] was over 16 µg/mL throughout.

For the molecule `COCC1=C[C@@H](C(N)=O)N2C[C@@H]1N(OS(=O)(=O)[O-])C2=O.[Na+]` [Example 9, (2S,5R)-2-carbamoyl-4-(methoxymethyl)-7-oxo-1,6-diazabicyclo[3.2.1]oct-3-en-6-yl hydrogen sulfate sodium salt], the MIC in assay [1], in assay [2], in [3] and in [4] was over 16 µg/mL in each case.

In the case of `COC[C@@H]1C=C(C(N)=O)[C@@H]2CN1C(=O)N2OS(=O)(=O)O` [Example 12, (2S,5R)-4-carbamoyl-2-(methoxymethyl)-7-oxo-1,6-diazabicyclo[3.2.1]oct-3-en-6-yl hydrogen sulfate, monosodium salt], the MIC was 100 µg/mL with Haemophilus influenzae; 50 µg/mL with Klebsiella pneumoniae; over 200 µg/mL in the assay with Pseudomonas aeruginosa; 25 µg/mL with Streptococcus pneumoniae; 100 µg/mL with Escherichia coli; 25 µg/mL in the assay with Streptococcus pyogenes. Besides, the MIC in [1] is over 64 µg/mL; in assay [2], over 64 µg/mL; in [3], over 64 µg/mL; in [4], 64 µg/mL; with S. aureus (MRSA) it was over 200 µg/mL.

`COCC1=C[C@@H](COC)N2C[C@@H]1N(OS(=O)(=O)[O-])C2=O.[Na+]` [Example 13, (2S,5R)-2,4-bis(methoxymethyl)-7-oxo-1,6-diazabicyclo[3.2.1]oct-3-en-6-yl sulfate Sodium salt]: the MIC in the assay with Haemophilus influenzae is 200 µg/mL; in the assay with Klebsiella pneumoniae, over 200 µg/mL; in the assay on Pseudomonas aeruginosa, over 200 µg/mL; in the assay with Streptococcus pneumoniae, 50 µg/mL; against Escherichia coli, over 200 µg/mL; with Streptococcus pyogenes, 100 µg/mL. Moreover, the MIC in assay [1] was over 16 µg/mL; in [2], over 16 µg/mL; in [3] it was over 16 µg/mL; in [4], over 16 µg/mL; against S. aureus (MRSA), over 200 µg/mL; in the assay with S. aureus (MSSA), over 200 µg/mL.

In the case of `CC(C)(C)OC(=O)N1CCC(NC(=O)[C@@H]2C=C[C@@H]3CN2C(=O)N3OS(=O)(=O)O)CC1` [Example 14, (2S,5R)-2-(1-(tert-butoxycarbonyl)piperidin-4-ylcarbamoyl)-7-oxo-1,6-diazabicyclo[3.2.1]oct-3-en-6-yl sulfate sodium salt], the MIC was 12.5 µg/mL in the assay on Haemophilus influenzae; over 200 µg/mL in the assay with Klebsiella pneumoniae; over 200 µg/mL in the assay on Pseudomonas aeruginosa; 100 µg/mL with Streptococcus pneumoniae; over 200 µg/mL in the assay on Escherichia coli; 100 µg/mL in the assay with Streptococcus pyogenes. The figures for the MIC with S. aureus (MRSA) and against S. aureus (MSSA) were over 200 µg/mL and 100 µg/mL, respectively.
